Data reported in ChEMBL document CHEMBL3507680, “University of Dundee, Gates Library screen for HepG2 cell viability”.

Test: Human HepG2 cell viability assay in 384 well format
Format: toxicity, cell-based
Parameters: dose 125 nL, time 70.5 hour; cytotoxicity at 70.5 h: concentration not given beside the values
Settings: HepG2 cells, read-out: Inhibition

Row | SMILES | cytotoxicity at 70.5 h
1 | COc1cccc2sc(N(C)CC(=O)NCc3nc(C)no3)nc12 | -3.58%
2 | CC(C)(C)C(=O)NCc1cnn2ccccc12 | -6.45%
3 | CC(C)(C)NC(=O)NCc1cnn2ccccc12 | -9.3%
4 | Cc1nccn1-c1ccc(=O)n(CCNC(=O)Cc2ccccc2)n1 | -12.3%
5 | Cc1ccc(S(=O)(=O)Nc2ccc(-n3nnn(C)c3=O)cc2)cc1 | 1.6%
6 | Cn1nnn(-c2ccc(NS(=O)(=O)c3ccc(F)c(Cl)c3)cc2)c1=O | -2.9%
7 | O=C(c1nnn(-c2ccccc2)n1)N(CCO)CCO | -5.32%
8 | Cc1ccc(-n2nnc(C(=O)NCC3CCCCC3)n2)cc1 | -7.05%
9 | COCC(C)NC(=O)c1nnn(-c2ccc(OC)cc2)n1 (centres undefined) | -9.57%
10 | O=C(c1nnn(-c2ccc(F)cc2)n1)N1CCC(O)CC1 | 2.17%
11 | COCC(C)NC(=O)c1nnn(-c2ccc(F)cc2)n1 (centres undefined) | -5.45%
12 | O=C(c1nnn(-c2ccc(Cl)cc2)n1)N(CCO)Cc1ccccc1 | -1.6%
13 | O=C(NC1(c2nc(C3CC3)no2)CCCCC1)c1ccncc1 | 5.56%
14 | COCCNC(=O)NC1(c2nc(-c3ccncc3)no2)CCCCC1 | 5.97%
15 | O=C(Cn1cccn1)N1CCC(c2nnc(C(F)(F)F)o2)CC1 | 30.9%
16 | CC(=O)N1CCC(c2nn(C)c(=O)n2-c2ccccc2)CC1 | -1.32%
17 | Cn1c(C(F)(F)F)nn(CCNC(=O)CCc2ccccc2)c1=O | 22.1%
18 | Cn1c(C(F)(F)F)nn(CCNC(=O)c2nc3ccccc3s2)c1=O | -8.57%
19 | CCS(=O)(=O)N1CCC(c2nnc(C(F)(F)F)o2)CC1 | 5.3%
20 | CNC(=O)CN1CCC(c2nn(C)c(=O)n2-c2ccccc2)CC1 | -4.2%
21 | O=C1COc2ccc(Cl)cc2CN1CC1CC1 | -12%

Row | SMILES | cytotoxicity at 70.5 h
22 | O=C1COc2ccc(Br)cc2CN1CC1CC1 | -16.7%
23 | O=C(c1nnn(-c2ccccc2Cl)c1-c1ccccn1)N1CCSCC1 | -2.09%
24 | O=C(Cn1ccc2ccccc21)Nc1cc(N2CCOCC2)ncn1 | 14.8%
25 | O=C(Cc1c(F)cccc1Cl)Nc1cc(N2CCOCC2)ncn1 | 9.04%
26 | Cc1nc(C)c(C(=O)Nc2cc(N3CCC(C)CC3)ncn2)s1 | 0.183%
27 | COc1ccc(F)cc1S(=O)(=O)NCCn1cnc(C)cc1=O | -12.5%
28 | Cn1nc(N2CCCC(C(=O)Nc3nccs3)C2)ccc1=O (centres undefined) | 18%
29 | Cc1cc(C(=O)N(CC(F)(F)F)C2CCOCC2)c(C)o1 | -7.23%
30 | O=C(C1=COCCO1)N1CC(Oc2nc3c(Cl)cccc3s2)C1 | 30.4%
31 | CCOCC(=O)NCCc1nc(C)cc(C(F)(F)F)n1 | -10.8%
32 | O=C(CN1C(=O)CCC1=O)NCCc1nc(C2CC2)cc(C(F)(F)F)n1 | 31.4%
33 | O=C1CCSCC(C(=O)N2CCCCC2)N1 (centres undefined) | -0.797%
34 | CS(=O)(=O)N1CCN(C(=O)C2CSCCC(=O)N2)CC1 (centres undefined) | 19.7%
35 | Cc1nnc(CNC(=O)C2CSCCC(=O)N2)o1 (centres undefined) | 45.2%
36 | CC(NC(=O)C1CN(c2ncnc3c2nnn3C)C1)c1ccccc1 (centres undefined) | -16.6%
37 | O=C(O)CC(CC(=O)NCCc1ccsc1)c1cccs1 (centres undefined) | -13.1%
38 | O=C(CCn1ccc(=O)[nH]c1=O)N1CCC(Oc2ccccn2)CC1 | -4.88%
39 | Cc1ccc(S(=O)(=O)N2CCC(Oc3ccccn3)CC2)c(C)c1 | -19.6%
40 | CCOC(=O)CCC(=O)N1CCC(Oc2ncccc2Cl)CC1 | -4.05%
41 | O=C(c1ccccn1)N1CCC(Oc2ncccc2Cl)CC1 | -2.05%
42 | COc1ccc(F)cc1S(=O)(=O)N1CCC(Oc2ccc(Cl)cn2)CC1 | -3.49%

Row | SMILES | cytotoxicity at 70.5 h
43 | COc1ccccc1C(=O)N1CCC(Oc2ccc(C#N)cn2)CC1 | -2.18%
44 | N#Cc1ccc(OC2CCN(C(=O)c3ccc(Br)o3)CC2)nc1 | 20.2%
45 | Cc1noc(C)c1S(=O)(=O)N1CCC(Oc2cnccn2)CC1 | 11.2%
46 | COC(=O)c1sccc1S(=O)(=O)N1CCC(Oc2cnccn2)CC1 | -7.44%
47 | O=S(=O)(c1ccccc1F)N1CCC(Oc2cccnn2)CC1 | -7.73%
48 | O=C(NCc1ccccc1)N1CCC(Oc2ncccc2Br)CC1 | -7.02%
49 | Cc1nc(OCC(=O)N2CCCC2)cc(-n2cccn2)n1 | -7.15%
50 | O=C(COc1ccc(-n2cccn2)nn1)N1CCCC1 | -2.51%
51 | COc1ncc(NS(=O)(=O)c2ccc(F)cc2F)cn1 | -3.22%
52 | Cc1cccc(C(=O)N2CCN(c3ccc(-n4cccc4)nn3)CC2)c1 | -7.5%
53 | O=S(=O)(NCCNc1ccc(-n2cccc2)nn1)c1ccccc1 | -5.01%
54 | O=S(=O)(Cc1ccccc1)NCCNc1ccc(-n2cccc2)nn1 | -13.6%
55 | O=S(=O)(NCCNc1ccc(-n2cccc2)nn1)c1cccs1 | 3.82%
56 | O=C(NCCNc1cc(-n2cccc2)ncn1)c1cccs1 | -4.09%
57 | Cc1nc(C)n(CC2CCCCN2CCc2ccncc2)n1 (centres undefined) | 16.8%
58 | CC(C)(C)c1n[nH]c(C2CN(C(=O)CCc3cccs3)CCO2)n1 (centres undefined) | -8.77%
59 | CCCc1n[nH]c(C2CN(C(=O)CCc3cscn3)CCO2)n1 (centres undefined) | -1.57%
60 | Cc1noc(C(C)N2CCN(Cc3nc(C)c(C)o3)CC2)n1 (centres undefined) | -3.69%
61 | Cc1cc(C)n(CC2CCCN2CCS(C)(=O)=O)n1 (centres undefined) | -9.56%
62 | CCn1ccnc1CN1CCCN(C(=O)c2ccnn2C)CC1 | -3.84%
63 | CCCN1CCCC1Cn1nc(C)cc1C (centres undefined) | -3.07%

Row | SMILES | cytotoxicity at 70.5 h
64 | CCc1ccc(C(=O)N2CCCC(n3nc(C)nc3C)C2)o1 (centres undefined) | 13.2%
65 | CC(Cc1ccco1)NC(=O)Nc1cccnc1 (centres undefined) | 2.87%
66 | COc1ccccc1OCCNCc1c(C(C)C)nn(C)c1N(C)C | 34.1%
67 | Cc1nc(C2CCCN2CC(=O)NCCOc2cccc(F)c2)no1 (centres undefined) | 19.2%
68 | O=C(c1cccnc1N1CCOCC1)N1CCCC(n2cncn2)C1 (centres undefined) | 18.2%
69 | CCc1nc(CC(=O)N2CCn3c(C)nnc3C2)cs1 | -6.05%
70 | COc1cc(CNCCc2cnn(C)c2)cc(OC)c1OC | 21.4%
71 | CC(C)c1nn(C)c(N(C)C)c1CNCc1cccnc1N(C)C | 0.645%
72 | Cc1cc(C)c(CNC(=O)NCC2CCCOC2)c(=O)[nH]1 (centres undefined) | -11.1%
73 | Cc1nc(C)n(CC2CCCN(CC(=O)Nc3nnc(C)s3)C2)n1 (centres undefined) | 17.5%
74 | Cc1nc(C)n(CC2CCCN(CC(=O)Nc3cc(C)on3)C2)n1 (centres undefined) | -2.38%
75 | CC(C)c1nnc2n1CCN(C(=O)Cc1csc(C(C)(C)C)n1)C2 | -8.69%
76 | CC(=O)c1ccc(OCC(=O)NS(=O)(=O)c2cccnc2)cc1 | 17.6%
77 | Cc1nnc2n1CCN(C(=O)c1cc(Cl)c(Br)[nH]1)C2 | -2.93%
78 | Cc1nc(CC(=O)N2CCn3c(nnc3C(C)C)C2)cs1 | -2.25%
79 | CC(C)c1ccc(OCC(=O)NS(=O)(=O)c2cccnc2)cc1 | -0.457%
80 | Cc1cc(OCC(=O)NS(=O)(=O)c2cccnc2)ccc1Cl | -2.82%
81 | CC(C)c1nn(C)c(N(C)C)c1CNCc1ccccc1CO | 0.684%
82 | CC(C)c1nn(C)c(N(C)C)c1CNCc1cccc2cccnc12 | 5.24%
83 | Cc1ccc(CN2CCC3(CC(=O)N(c4cccc(F)c4)C3)C2)o1 (centres undefined) | -17.4%
84 | O=C1CC2(CCN(Cc3ccncc3)C2)CN1c1cccc(F)c1 (centres undefined) | -12.5%
